In the experiment the target is T1, zebrafish Ape1 (zApe1) (Danio rerio, UniProt A0MTA1, T58C).
T1 sequence (A0MTA1 1-310 T58C): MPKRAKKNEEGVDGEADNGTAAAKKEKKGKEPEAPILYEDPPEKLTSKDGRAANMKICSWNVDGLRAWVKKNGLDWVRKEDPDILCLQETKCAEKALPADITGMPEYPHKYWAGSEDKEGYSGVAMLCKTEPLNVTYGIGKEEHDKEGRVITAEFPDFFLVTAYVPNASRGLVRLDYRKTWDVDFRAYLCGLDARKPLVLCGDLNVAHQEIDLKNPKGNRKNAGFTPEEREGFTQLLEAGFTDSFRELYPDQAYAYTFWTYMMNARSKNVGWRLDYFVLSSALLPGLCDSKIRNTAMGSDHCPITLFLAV
The experiment is described as follows: redox EMSA: Ape1-stimulated AP-1 DNA binding, HEX-labelled oligonucleotide. The experiment is classed as biochemical. (In general: Mobility shift assays separate free from complexed probe on a gel.)

Each structure is given as a SMILES string.

`CCCCCCCCC/C(=C\C1=C(C)C(=O)C(OC)=C(OC)C1=O)C(=O)O` [compound 5, (E)-3-(4,5-dimethoxy-2-methyl-3,6-dioxocyclohexa-1,4-dienyl)-2-nonylpropenoic acid]: the IC50 (in general, the concentration that gives 50% inhibition) stood at 5 µM.

(Values after publication PMC2587278 (Antioxidants & redox signaling, 2008).)
